Experiment [1] concerns cultured human mast cells (CHMC). Nature of the experiment: CHMC low cell density ionomycin activation: tryptase assay. The format is cell-based. The note with it: low cell density CHMC, tryptase readout, 3 pt, read-out: LD Tryptase, CHMC, Iono, 3 pt.
The test system is the same in experiment [2]. The experiment is described as follows: CHMC low cell density IgE activation: tryptase assay. The format is cell-based. The note with it: low cell density CHMC, IgE activation, tryptase readout. An outline of the steps:
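Tryptase release, fluorogenic substrate, 30 min RT. Prior anti-IgE stimulation of CHMC, 30 min, 37 °C, after 1 hr preincubation at 1000–1500 cells/well in MT; unstimulated wells received MT.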

The mark [3] stands for this setting: 3 pt, read-out: LD Tryptase, CHMC, IgE, 3 pt.
Where [4] appears, read: 8 pt, read-out: LD Tryptase, CHMC, IgE, 8 pt.
Setting [5] is: Homo sapiens, Mast cell, 3 pt, read-out: LD Tryptase, CHMC, IgE, 3 pt.
Where [6] appears, read: Homo sapiens, Mast cell, 8 pt, read-out: LD Tryptase, CHMC, IgE, 8 pt.

As for `CCOC(=O)COc1c(C)cc(Nc2ncc(F)c(Nc3ccc4c(c3)NC(=O)C(C)(C)O4)n2)cc1Cl` [Compound 1014, N2-[3-Chloro-4-ethoxycarbonylmethyleneoxy-5-methylphenyl]-N4-(2,2-dimethyl-3-oxo-4H-benz[1,4]oxazin-6-yl)-5-fluoro-2,4-pyrimidinediamine], the IC50 in experiment [1], in experiment [2] (setting [3]) and in experiment [2] (setting [4]) was below 10 µM throughout.

As for `CNC(=O)COc1cccc(Nc2ncc(F)c(Nc3ccc4c(n3)N(C)C(=O)C(C)(C)O4)n2)c1` [Compound 1015, 5-Fluoro-N2-[3-(N-methylamino)carbonylmethyleneoxyphenyl]-N4-[3-oxo-2,2,4-trimethyl-5-pyrid[1,4]oxazin-6-yl]-2,4-pyrimidinediamine], the IC50 in experiment [1] was above 10 µM; in experiment [2] (setting [3]) it was below 10 µM; in experiment [2] (setting [4]) it was below 10 µM.

As to `CC1(C)Oc2ccc(Nc3nc(Nc4cccc(-c5cnco5)c4)ncc3F)cc2NC1=O` [Compound 1016, N4-(2,2-Dimethyl-3-oxo-4H-benz[1,4]oxazin-6-yl)-5-fluoro-N2-[3-(oxazol-5-yl)phenyl]-2,4-pyrimidinediamine], the IC50 in experiment [1] (Homo sapiens, Mast cell) was above 10 µM; in experiment [2] (setting [5]), below 10 µM; in experiment [2] (setting [6]), below 10 µM.

Consider `CN1C(=O)C(C)(C)Oc2ccc(Nc3nc(Nc4cccc(-c5cnco5)c4)ncc3F)nc21` [Compound 1017, 5-Fluoro-N2-[3-(oxazol-5-yl)phenyl]-N4-[3-oxo-2,2,4-trimethyl-5-pyrid[1,4]oxazin-6-yl]-2,4-pyrimidinediamine], for which the figures for the IC50 in experiment [1], in experiment [2] (setting [3]) and in experiment [2] (setting [4]) were above 10 µM, below 10 µM and below 10 µM, respectively.

Regarding `Cc1cc(Nc2ncc(F)c(Nc3ccc4c(c3)NC(=O)C(C)(C)O4)n2)cc(Cl)c1OC1CCCC1` [Compound 1018, N2-[3-Chloro-4-cyclopentyloxy-5-methylphenyl]-N4-(2,2-dimethyl-3-oxo-4H-benz[1,4]oxazin-6-yl)-5-fluoro-2,4-pyrimidinediamine], the IC50 in experiment [1] (Homo sapiens, Mast cell) was above 10 µM; in experiment [2] (setting [5]), below 10 µM; in experiment [2] (setting [6]), below 10 µM.

For the compound `CN(c1ccc2c(c1)NC(=O)C(C)(C)O2)c1nc(Nc2cccc(-c3ncco3)c2)ncc1F` [Compound 1019, N4-(2,2-Dimethyl-3-oxo-4H-benz[1,4]oxazin-6-yl)-5-fluoro-N4-methyl-N2-[3-(oxazol-2-yl)phenyl]-2,4-pyrimidinediamine], the IC50 in experiment [1] (Homo sapiens, Mast cell) was above 10 µM; in experiment [2] (setting [5]) it was below 10 µM; in experiment [2] (setting [6]) it was below 10 µM.

Turning to `CC1(C)Oc2ccc(Nc3nc(Nc4ccc(-c5cnco5)cc4)ncc3F)cc2NC1=O` [Compound 1020, N4-(2,2-Dimethyl-3-oxo-4H-benz[1,4]oxazin-6-yl)-5-fluoro-N2-[4-(oxazol-5-yl)phenyl]-2,4-pyrimidinediamine], the IC50 in experiment [1] (Homo sapiens, Mast cell) is above 10 µM; in experiment [2] (setting [5]), below 10 µM; in experiment [2] (setting [6]), below 10 µM.

`CN(c1ccc2c(c1)NC(=O)C(C)(C)O2)c1nc(Nc2ccc(-c3ncco3)cc2)ncc1F` [Compound 1021]: the IC50 was below 10 µM in experiment [1] (Homo sapiens, Mast cell); below 10 µM in experiment [2] (setting [5]); below 10 µM in experiment [2] (setting [6]).

With `CNC(=O)COc1cccc(Nc2ncc(F)c(N(C)c3ccc4c(c3)NC(=O)C(C)(C)O4)n2)c1` [Compound 1022, N4-(2,2-Dimethyl-3-oxo-4H-benz[1,4]oxazin-6-yl)-5-fluoro-N4-methyl-N2-[3-(N-methylamino)carbonylmethyleneoxyphenyl]-2,4-pyrimidinediamine], the results for the IC50 in experiment [1], in experiment [2] (setting [3]) and in experiment [2] (setting [4]) were above 10 µM, below 10 µM and below 10 µM, respectively.

For `CN(c1ccc2c(c1)NC(=O)C(C)(C)O2)c1nc(Nc2cccc(-c3cnco3)c2)ncc1F` [Compound 1023, N4-(2,2-Dimethyl-3-oxo-4H-benz[1,4]oxazin-6-yl)-5-fluoro-N4-methyl-N2-[3-(oxazol-5-yl)phenyl]-2,4-pyrimidinediamine], the IC50 in experiment [1] (Homo sapiens, Mast cell) is above 10 µM; in experiment [2] (setting [5]), below 10 µM; in experiment [2] (setting [6]) it was below 10 µM.

With `CN1C(=O)C(C)(C)Oc2ccc(N(C)c3nc(Nc4ccc(-c5ncco5)cc4)ncc3F)cc21` [Compound 1024], the IC50 in experiment [1] (Homo sapiens, Mast cell) is below 10 µM; in experiment [2] (setting [5]), below 10 µM.

In the case of `CN1C(=O)C(C)(C)Oc2ccc(N(C)c3nc(Nc4cccc(-c5ncco5)c4)ncc3F)cc21` [Compound 1025, 5-Fluoro-N4-methyl-N2-[3-(oxazol-2-yl)phenyl]-N4-(3-oxo-2,2,4-trimethylbenz[1,4]oxazin-6-yl)-2,4-pyrimidinediamine], the IC50 in experiment [1] (Homo sapiens, Mast cell) is below 10 µM; in experiment [2] (setting [5]), below 10 µM.

`CN1C(=O)C(C)(C)Oc2ccc(N(C)c3nc(Nc4ccc(-c5cnco5)cc4)ncc3F)cc21` [Compound 1026]: the IC50 in experiment [1] (Homo sapiens, Mast cell) was above 10 µM; in experiment [2] (setting [5]), below 10 µM.

With `Cc1cc(Nc2ncc(F)c(Nc3ccc4c(n3)NC(=O)C(C)(C)O4)n2)cc(Cl)c1OC1CCCC1` [Compound 1027, N2-(3-Chloro-4-cyclopentyloxy-5-methylphenyl)-N4-(2,2-dimethyl-3-oxo-4H-5-pyrid[1,4]oxazin-6-yl)-5-fluoro-2,4-pyrimidinediamine], the IC50 is above 10 µM in experiment [1] and below 10 µM in experiment [2] (setting [3]).

As for `CC1(C)Oc2ccc(Nc3nc(Nc4cccc(-c5ncco5)c4)ncc3F)nc2NC1=O` [Compound 1028, N4-(2,2-Dimethyl-3-oxo-4H-5-pyrid[1,4]oxazin-6-yl)-5-fluoro-N2-[3-(oxazol-2-yl)phenyl]-2,4-pyrimidinediamine], the results for the IC50 in experiment [1], in experiment [2] (setting [3]) and in experiment [2] (setting [4]) were above 10 µM, below 10 µM and below 10 µM, respectively.

Take `CC1(C)Oc2ccc(Nc3nc(Nc4cccc(-c5cocn5)c4)ncc3F)nc2NC1=O` [Compound 1029, N4-(2,2-Dimethyl-3-oxo-4H-5-pyrid[1,4]oxazin-6-yl)-5-fluoro-N2-[3-(oxazol-4-yl)phenyl]-2,4-pyrimidinediamine]: the IC50 in experiment [1] was above 10 µM; in experiment [2] (setting [3]) it was below 10 µM; in experiment [2] (setting [4]), below 10 µM.

`CN1C(=O)C(C)(C)Oc2ccc(N(C)c3nc(Nc4cccc(-c5cocn5)c4)ncc3F)cc21` [Compound 1030]: the IC50 is below 10 µM in experiment [1] (Homo sapiens, Mast cell) and below 10 µM in experiment [2] (setting [5]).

Regarding `COc1c(C)cc(Nc2ncc(F)c(N(C)c3ccc4c(c3)N(C)C(=O)C(C)(C)O4)n2)cc1C` [Compound 1031], the IC50 in experiment [1] (Homo sapiens, Mast cell) was above 10 µM; in experiment [2] (setting [5]), below 10 µM.

For the compound `Cc1cc(Nc2ncc(F)c(N(C)c3ccc4c(c3)N(C)C(=O)C(C)(C)O4)n2)cc(Cl)c1OC1CCCC1` [Compound 1032, N2-(3-Chloro-4-cyclopentyloxy-5-methylphenyl)-5-fluoro-N4-methyl-N4-(3-oxo-2,2,4-trimethyl-benz[1,4]oxazin-6-yl)-2,4-pyrimidinediamine], the IC50 in experiment [1] (Homo sapiens, Mast cell) was above 10 µM; in experiment [2] (setting [5]) it was above 10 µM.

As to `COc1c(C)cc(Nc2ncc(F)c(Nc3ccc4c(c3)N(C)C(=O)C(C)(C)O4)n2)cc1C` [Compound 1033], the IC50 in experiment [1] (Homo sapiens, Mast cell) is below 10 µM; in experiment [2] (setting [5]), below 10 µM; in experiment [2] (setting [6]) it was below 10 µM.

On to `Cc1cc(Nc2ncc(F)c(Nc3ccc4c(c3)N(C)C(=O)C(C)(C)O4)n2)cc(Cl)c1OC1CCCC1` [Compound 1034, N2-(3-Chloro-4-cyclopentyloxy-5-methylphenyl)-5-fluoro-N4-(3-oxo-2,2,4-trimethyl-benz[1,4]oxazin-6-yl)-2,4-pyrimidinediamine], for which the IC50 is above 10 µM in experiment [1] (Homo sapiens, Mast cell) and below 10 µM in experiment [2] (setting [5]).

The record behind these values is US20220073536A1 (Rigel Pharmaceuticals, Inc., priority 2003, published 2022).
